Read-outs that look alike come from different tables or passages of the source.
Tests used:
[1] = system: normal human keratinocytes; conditions: for OUTCOME (neutral red viability): Keratinocytes, Continuous 12 hrs or 90 min/day for 10 days
Description: Human skin pieces (5 cm squares) were incubated at 4° C. in a solution of 20U/ml dispase (Collaborative Research; 5 mg collagen/cm2) in KGM (Keratinocyte Growth Medium, Clonetics Corp.), for 48 hours. The epidermis was separated from the dermis and dispersed in a solution containing 0.025% trypsin and 0.02% EDTA, by incubation at 37° C. and vigorous pipetting, to produce a single cell suspension. The resulting keratinocytes were then plated into tissue culture flasks coated with collagen VII, and cultured in KGM, a serum free defined medium at 37° C. (5% CO2, 97% humidity). […] The cells were harvested with 0.05% trypsin, 0.02% EDTA, and passaged in their respective media or used for construction of dermal and skin equivalents. For experimental treatments the cells were plated into 25 cm tissue culture flasks (T-25), 6 well tissue culture (TC) plates (9.6 cm^2/well), or 4 well TC plates (2 cm^2/well).
(§2) The cells, DEs, or tissue equivalent products, contained in TC plates, were transferred into the treatment chamber, the lids were removed, and the TC plates covered with sterile gauze. […] The treatment pressure was maintained for 90 minutes. At the conclusion, decompression was carried out slowly over a five-minute period, and the treated cultures returned to the CO2 incubator. The treatments were repeated for 2, 5, or 10 consecutive days, and a normal medium change schedule was maintained.
(§3) The cells and equivalents were incubated in 1 ml of neutral red solution (1 mg/ml in appropriate media) for 4 hours at 37° C. The effects on the cells (fibroblasts/keratinocytes) were evaluated microscopically and photographically recorded. The entry of neutral red into the cells signified that they were viable.

[2] = system: Fibroblasts in Dermal Eq. Submerged; conditions: 90 min/day for 10 days
Description: (§4) Dermal equivalents were constructed at 4° C. by mixing 8 parts collagen (Type I acid solubilized, ICN Cellagen®; 3 mg/ml), 1 part of 10×Ham's F-12 medium, 1 part buffer (200 mM HEPES, 25 mM Na2CO3 and 50 mMN NaOH) and inoculating with dermal fibroblasts (1×10^5 cells/ml at 4° C.). For experimental treatments DE were cast in 4 or 12 well tissue culture plates and were maintained at 37° C. in Ham's F-12 Medium containing 5% FBS. Fibroblasts regained their normal morphology within 48 hours, after which DE were maintained in modified Ham's F-12 Medium, changing the media every 48 hours.
as §2, §3

[3] = system: normal human dermal fibroblasts
Description: Collagen production by near confluent monolayer of dermal fibroblasts was determined by measuring the incorporation of tritiated proline [3H-proline] into bacterial collagenase-sensitive protein [Postlethwaite et al., Proc. Nat. Acad. Sci. (USA) 75:871-875 (1978)] using an extensively modified method of Peterkofsky and Diegelmann, Developmental Biology 28:443-453 (1972). The wells of a six well TC plate (Falcon 3008) were seeded with 5×10^5 fibroblasts and were cultured in DMEM containing 5% FBS for 72 hr at 37° C. (humidified 5% CO2 incubator). The medium was then replaced with serum free DMEM lacking in nonessential amino acids (500 ml), and containing 5 μC L-proline[2,3-3H] (20 Ci/mM, NEN, Boston, Mass.), and the hyperbaric treatments initiated. After 48 and 120 hours, two aliquots (200 ml) of culture supernatant were removed from each well. One aliquot was used to quantitate total protein production as follows: supernatant (200 ml) was added to 0.2 M Tris/0.3 M CaCl2 buffer (pH 7.5, 70 ml), FBS (25 ml),N-ethylmaleimide (NEM, 30 ml), and a 0.75% solution of tannic acid (TA) in 50% trichloroacetic acid 9TCA) (75 ml). […] The filters, placed in scintillation vials containing 5 ml Aquasol (New England Nuclear), were chilled for 4 hr, and counted in a liquid scintillation counter.
The second aliquot of was used to quantitate the noncollagen protein as follows: supernatant (200 ml) was added to 0.2 M Tris/0.3 M CaCl2 buffer (pH 7.5, 50 ml), NEM (30 ml) and bacterial collagenase (20 ml) (Worthington Biochemical Corp., Freehold, N.J.), purified just before use by gel filtration on Sephadex G-200 to remove proteinases. […] The precipitate was collected on glass fiber filters, and the radioactivity was measured by scintillation counting.
De novo synthesized collagen by each fibroblast culture was determined by substracting the noncollagen protein from the total proteins synthesized. Samples were assaved in quadruplicate or triplicate and the data are expressed as mean epm (+SEM) and/or percent of collagen produced relative to control cultures. […]

[4] = 90 minutes, DMEM, KBM
Description: A method similar to that described by Rafi et al., Am. J. Med. Genetics 61:299-303 […] was used to measure the partial pressure of oxygen (pO2) dissolved in the culture medium bathing the cells. To each well of a multiwell tissue culture (TC) plate was added the appropriate culture medium to a depth of 2 mm. The TC plates were then placed in the treatment chamber, the chamber was flushed out with oxygen for five minutes and then pressurized over an additional five minute period. The pressure was maintained for 90 minutes after which time period the treatment chamber was decompressed over a period of five minutes. The TC plates were then removed from the chamber and the pO2 measurement taken within two minutes using a polarographic oxygen electrode (Diamond General Development Corporation, Ann Arbor, Mich.). Dissolution of oxygen at four different pressures was measured in three different media.

[5] = system: Fibroblasts in Dermal Eq. on Grids; conditions: 90 min/day for 10 days
Description: as §4, §2, §3

[6] = system: normal human keratinocyte monolayers; conditions: periodic HBO treatment
Description: (§1) The cells, DEs, or tissue equivalent products, contained in TC plates, were transferred into the treatment chamber, the lids were removed, and the TC plates covered with sterile gauze. The treatment chamber was sealed, the oxygen (100%) was blown through slowly to expel all the air (2 min.), and the chamber brought up to the appropriate pressure over a period of five minutes. The treatment pressure was maintained for 90 minutes. At the conclusion, decompression was carried out slowly over a five-minute period, and the treated cultures returned to the CO2 incubator. The treatments were repeated for 2, 5, or 10 consecutive days, and a normal medium change schedule was maintained.

[7] = system: normal human dermal fibroblasts monolayers; conditions: for cell proliferation (cell numbers): 90 min./day for ten days
Description: as §1

[8] = system: human skin equivalent product; conditions: 90 minutes/day for 10 days
Description: as §1

[9] = system: normal human skin fibroblasts
Description: Dermal fibroblasts were obtained as outgrowths from explanted dermal tissue, after incubation at 37° C. 5% CO2 97% humidity) in DMEM containing 10% FBS. The cells were harvested with 0.05% trypsin, 0.02% EDTA, and passaged in their respective media or used for construction of dermal and skin equivalents. For experimental treatments the cells were plated into 25 cm tissue culture flasks (T-25), 6 well tissue culture (TC) plates (9.6 cm^2/well), or 4 well TC plates (2 cm^2/well).
as §2, §3

HUSE Product = conditions: for OUTCOME (neutral red viability): HUSE Product, 90 min/day for 10 days
Description: Dermal equivalents, cast in 12 well tissue culture plates, were coated with collagen VII (Collaborative Research; 12 mg collagen/cm^2). Early passage keratinocytes (1.8×10^5cells/cm^2), suspended in KGM (2 mls) were then plated onto DE. The medium was changed after 24 hours, and thereafter at 48 hour intervals. Once a confluent monolayer was formed, the DE were transferred to a wire mesh grids, elevated to the air-liquid interface, and the media was changed to modified KGM containing 1.8 mM CaCl2; once lifted (“lift date” was “Day 0”) the system was considered to be a “developing HUSE product”. The “epidermis” remained at the air-liquid interface and differentiated for the duration of the experiment, the media being changed every 3 days. The HUSE product was considered mature after 14 days of differentiation.
as §2, §3

O=O [100% O2, oxygen]
OUTCOME (neutral red viability) ([1]; 760 mm Hg): Non-Toxic
OUTCOME (neutral red viability) ([1]; 1520 mm Hg): Non-Toxic
OUTCOME (neutral red viability) ([1]; 2280 mm Hg): Non-Toxic
toxicity ([1]; keratinocyte monolayer cultures, any pressure): No toxicity
OUTCOME (neutral red viability) ([2]; 760 mm Hg): Non-Toxic
OUTCOME (neutral red viability) ([2]; 1520 mm Hg): Non-Toxic
OUTCOME (neutral red viability) ([2]; 2280 mm Hg): Non-Toxic
collagen synthesis ([3]; 1 atmosphere, after two days of treatment): elevated
levels of collagen synthesis ([3]; five days vs two days of treatment, all pressure levels): higher after five days of treatment than after two days
collagen synthesis ([3]; with increased HBO): inhibition of collagen synthesis
MEASURED pO2 (Mean of three readings) ([4]; applied O2 pressure 1 atm. - 760 mm Hg, KGM): 316 mm Hg
MEASURED pO2 (Mean of three readings) ([4]; applied O2 pressure 2 atm. - 1520 mm Hg, KGM): 800 mm Hg
MEASURED pO2 (Mean of three readings) ([4]; applied O2 pressure 2.5 atm. - 1900 mm Hg, KGH): 941 mm Hg
MEASURED pO2 (Mean of three readings) ([4]; applied O2 pressure 3 atm. - 2280 mm Hg, KGM): 1215 mm Hg
OUTCOME (neutral red viability) ([5]; 760 mm Hg): Non-Toxic
OUTCOME (neutral red viability) ([5]; 1520 mm Hg): Some Toxicity
OUTCOME (neutral red viability) ([5]; 2280 mm Hg): Some Toxicity
cell number ([6]; 1 atm.): consistently indistinguishable from the controls
cell number ([6]; 2 atm.): not as mitotic as the latter
cell number ([6]; 2.5 atm.): not as mitotic as the latter
cell number ([6]; 3 atm.): a constant number of cells, well below the numbers obtained in other treatments
cell proliferation (cell numbers) ([7]; 1 atm. Donor): Stimulation of cell proliferation
cell proliferation (cell numbers) ([7]; 2.5 atm. Donor): Stimulation of cell proliferation
cell proliferation (cell numbers) ([7]; 3 atm, donor): consistently non-stimulating and perhaps marginally anti-mitotic
effect on fibroblast mitosis ([7]; oxygen pressures above about three atmospheres): antimitotic
cornification of the epidermal layer [8]: particularly stimulated
epidermal thickness ([8]; 1 and 2 atm of 100% oxygen, vs untreated control): progressive increase in epidermal thickness
OUTCOME (neutral red viability) ([9]; 3 hrs/day for 5 days, 320 mm Hg): Non-Toxic
OUTCOME (neutral red viability) ([9]; 3 hrs/day for 5 days, 480 mm Hg): Non-Toxic
OUTCOME (neutral red viability) ([9]; 3 hrs/day for 5 days, 760 mm Hg): Non-Toxic
OUTCOME (neutral red viability) ([9]; Continuous 12 hrs, 760 mm Hg): Non-Toxic
OUTCOME (neutral red viability) ([9]; Continuous 12 hrs, 1520 mm Hg): Some Toxicity
OUTCOME (neutral red viability) ([9]; Continuous 12 hrs, 1520 mm Hg, listed as 100% oxygen): some toxicity
OUTCOME (neutral red viability) ([9]; Continuous 12 hrs, 2280 mm Hg): Some Toxicity
OUTCOME (neutral red viability) ([9]; Continuous 12 hrs, 2280 mm Hg, listed as 100% oxygen): some toxicity
OUTCOME (neutral red viability) (HUSE Product; 760 mm Hg): Non-Toxic
OUTCOME (neutral red viability) (HUSE Product; 1520 mm Hg): Non-Toxic
OUTCOME (neutral red viability) (HUSE Product; 2280 mm Hg): Non-Toxic
adverse effect on developing HUSE products (HUSE Product; up to 3 atmospheres): not adversely affected

Source: patent publication US6471958B2, “Non-contracting tissue equivalent” (University of North Texas Health Science Center, priority 1998, dated 2002)
